The source of these data is patent US5552267A, “Solution for prolonged organ preservation” (priority 1994, dated 1996).

The subject of this assay is lung. The experiment in a line: orthotopic rat left lung transplantation, cGMP series (hemodynamics, oxygenation, recipient survival). The assay is classed as in vivo, rat (male Lewis). As to the method: Orthotopic rat left lung transplantation was accomplished using inbred male Lewis rats (250-300 gms), using a modification of a previously described technique^29. The donor rat was anesthetized and heparinized (500 U intravenously), and endotracheal intubation was performed by inserting a 16 gauge angiocatheter into the trachea using blunt cervical dissection, after which the rat was ventilated with room air at a constant rate (100 breaths/minute) and tidal volume (2.5 ml), using a Harvard rodent ventilator. […] The pulmonary artery (PA) and pulmonary vein (PV) were divided, the bronchus ligated with the lung partially inflated and then divided, and the lung removed. The vascular stumps were each pulled through a small plastic cylinder, and a lip of vessel was turned back around the edge and secured in place with a suture to form a "cuff." A small plastic cylinder was inserted into the bronchial stump and secured, and the lung was then wrapped in gauze and submerged in cold preservation solution for the desired interval.
The recipient rat (gender/size/strain-matched) was similarly anesthetized and intubated (ventilated with 100% oxygen), but not heparinized. A left thoracotomy was performed, the hilum was dissected, and the left bronchus, PA, and PV were isolated, cross-clamped, divided and the native lung was removed from the field. The PA and PV stumps were rinsed with heparinized saline to remove any clot. The donor lung was brought onto the surgical field, and the cylinder (bronchus) and cuffs (PA and PV) were connected rapidly to their respective structures with a simple staying suture. This cuff technique permitted rapid approximation of donor and recipient tissues with no contact of a foreign substance with the luminal vascular surface. The hilar cross-clamp was released, re-establishing blood flow, and the bronchus tie was removed, enabling gas exchange. A snare was then passed around the right PA, and a Millar catheter (2F; Millar Instruments,Houston, Tex.) was introduced through a small hole (surrounded by a pursestring) into the main PA; similarly, a Millar catheter was introduced into the left atrium (LA). A flow probe (Transonics, Ithaca, N.Y.) was then placed around the main PA. Arterial blood gas sampling performed via the left femoral artery.
Online hemodynamic monitoring was accomplished using MacLab and a Macintosh IIci computer. The hemodynamic parameters that were measured included PA pressure (mm Hg), blood flow (ml/min), LA pressure (mm Hg), as well as arterial oxygen tension (mm Hg) during inspiration of 100% oxygen; pO2 was analyzed with a model ABL-2 dissolved gas analyzer (Radiometer, Copenhagen, Denmark). Pulmonary vascular resistances (PVRs) were calculated as [mean PA pressure-LA pressure]/PA flow. The native lung supported the recipient during the period of warm ischemia (the period during which the donor lung was removed from cold preservation until the time of reperfusion, <10 min. in all instances), but immediately following rapid hemodynamic instrumentation and acquisition of baseline measurements, the native (right) PA was then ligated, and serial measurements (representative solely of the transplanted lung) were taken every five minutes for 30 minutes. Because the native lung was effectively removed from the circulation by ligation of the right PA, these measurements represent function of the transplanted lung. Recipient death was identified by the cessation of cardiac mechanical activity observed through the thoracotomy.
Preservation solutions were freshly made and coded by a technician not otherwise involved in the experiments, according to a general plan which included both control and experimental groups. […]

Where [1] appears, read: 6 h in EC, 8-Br-cGMP 0.5 mM where added.

Molecule `Nc1nc2c(nc(Br)n2[C@@H]2O[C@@H]3COP(=O)(O)O[C@H]3[C@H]2O)c(=O)[nH]1` [8-Br-cGMP, 8-bromoguanosine-3'5' cyclic monophosphate] came in with a recipient survival (4 h preservation in LR) of 86%. In addition, under setting [1], the arterial oxygenation came out at 474±41 mm Hg, the “pulmonary arterial blood flow” value was 26 ± 2.3 mL/min, the pulmonary vascular resistance is 1.1±0.14 Woods units×10^-3 and the recipient survival came out at 100%. Besides, the “concentration of maximal beneficial effect” value (range 0.005 to 0.5 mM, 6 h in EC) turned out to be 0.5 mM.
